Measurements taken from PMC5670201 (Scientific Reports, 2017).
Ends that are not written are not given here.

Assays:
HSA Peptide 40 = target: T1, HSA Peptide 40 (Homo sapiens, UniProt P02768); assay: biochemical; type: binding; details: for binding to HSA Peptide 40: Biacore SPR screen, immobilized HSA Peptide 40 and vice versa
T1 construct: HSA 40 (479-496); purchased New England Peptide (Gardner, MA, USA)
Procedure: All peptides were run in the pM-uM concentration ranges. […] Short gaps in binding curves at transition times are from removal of solvent spikes during analysis. Binding kinetics were determined via Biacore Evaluation Software analysis of SPR sensograms. […] Structure, PDB 1BJ1, was visualized using UCSF Chimera.
The 3D structure of the positive variable region peptides were predicted by PEPFOLD 3.0 to compare to their beta hairpin structure within the full antibody[9]–[11] (Fig. 4d).
Peptides were run in the pM-uM concentration range. […] (b) Multiple sequence alignment of the variable region peptides in question, performed by Clustal Omega. […] (d) 3D structure prediction of peptides in solution performed by PEP-FOLD 3.0, visualized in Chimera. […] Pembrolizumab included as a negative control.
Peptides were re-suspended and stored in HBS running buffer at either 5 or 10 mg/ml, with up to 10% DMSO added as needed. All antibodies, peptides, as well as HSA, were immobilized on Biacore (GE Healthcare, Chicago, IL) CM5 chips via amine coupling according to manufacture protocol. Immobilization scouting was performed with pH 4.0–5.5 acetate at micromolar concentration ranges, to determine ideal immobilization conditions. […] All peptides and proteins were screened at multiple concentrations from pico to millimolarity, with an association time of 120 to 180 seconds and a dissociation time from 180 to 1200 seconds. Binding kinetics were determined using Biacore Evaluation Software and a 1:1 fit model.
The mixture was frozen, evaporated, and re-suspended in HPLC grade water with 0.1% trifluoroacetic acid. The digest was applied to a Waters X-Bridge Protein BEH C4 column (Waters, Milford, MA) and eluted off at a flow rate of 1 ml/min and a gradient of 0–60% Acetonitrile with 0.1% trifluroacetic acid over 60 minutes.

Human Serum Albumin = Human Serum Albumin (Homo sapiens, UniProt P02768); assay: Biacore SPR, antibody variable domain peptides and antibodies against human serum albumin; type: binding; details: for binding to human serum albumin: Biacore SPR screen, immobilized HSA and vice versa; for Kd: human, Biacore SPR, CM5 amine coupling, peptide over immobilized HSA and vice versa, pM-uM, 1:1 fit, read-out: Kinetic Binding Parameters Against Human Serum Albumin: KD
Description: The 3D structure of the positive variable region peptides were predicted by PEPFOLD 3.0 to compare to their beta hairpin structure within the full antibody[9]-[11] (Fig. 4d). […] Peptides were run in the pM-uM concentration range. […] (b) Multiple sequence alignment of the variable region peptides in question, performed by Clustal Omega. […] (d) 3D structure prediction of peptides in solution performed by PEP-FOLD 3.0, visualized in Chimera. […] Pembrolizumab included as a negative control.

| binding to HSA Peptide 40 (HSA Peptide 40) | binding to human serum albumin (Human Serum Albumin) | Kd (Human Serum Albumin) [pM] | Kd (HSA Peptide 40) [µM] | kon (HSA Peptide 40; read-out: Kinetic Binding Parameters against HSA Peptide 40: kon) [M⁻¹ s⁻¹] | Molecule |
| --- | --- | --- | --- | --- | --- |
| bound both | bound both | 2.48e+06 | – | – | CC(C)[C@H](NC(=O)[C@H](CC(N)=O)NC(=O)[C@H](Cc1ccccc1)NC(=O)[C@H](Cc1ccc(O)cc1)NC(=O)[C@H](Cc1c[nH]c2ccccc12)NC(=O)[C@H](CC(=O)O)NC(=O)CNC(=O)CNC(=O)[C@H](Cc1ccc(O)cc1)NC(=O)[C@H](Cc1ccc(O)cc1)NC(=O)[C@@H](NC(=O)[C@H](CO)NC(=O)[C@H](CCCNC(=N)N)NC(=O)[C@H](C)NC(=O)[C@H](CS)NC(=O)[C@@H](N)Cc1ccc(O)cc1)[C@@H](C)O)C(=O)N[C@@H](Cc1c[nH]c2ccccc12)C(=O)NCC(=O)N[C@@H](C)C(=O)NCC(=O)O [RVP1] |
| – | – | 2.37e+06 | – | – | DTAVYYCAKYPHYYGSSHWYF [BVP1] |
| – | – | – | 0.503 | 357 | HYYGSSHWYFDVWGQ [Bevacizumab Heavy Chain 11] |
| binding neither | binding neither | – | – | – | RVP2: Rituximab Variable Domain Peptide 2 (101-120) |
| – | do not bind HSA | – | – | – | rituximab: commercial monoclonal antibody, anti-CD20 |
